Assay: Observation of haloprogin / 2-octyl cyanoacrylate monomer composition after preparation
Assay type: physicochemical
Method: A 2-octyl cyanoacrylate monomer composition is prepared by adding 30 mg of haloprogin, an anti-fungal agent, to 2 mL of 2-octyl cyanoacrylate monomer. The mixture is sealed in a glass vial and stirred. The characteristics of the composition are observed at about one minute after preparation and later at least twenty-four hours after preparation.

Clc1cc(Cl)c(OCC#CI)cc1Cl [haloprogin]
premature polymerization of the monomer (stability) (30 mg haloprogin in 2 mL 2-octyl cyanoacrylate monomer, at least twenty-four hours after preparation): does not cause premature polymerization | solubility of haloprogin in the monomer (30 mg in 2 mL 2-octyl cyanoacrylate monomer, about one minute and at least twenty-four hours after preparation): soluble in the monomer
